{"source": "the supplement of paper PMC10307832", "test_in_all_cases": "relative viability (nuclei count vs DMSO), 5 days (fraction); higher = more cells survive", "key": {"PC-3 [JPC-3]": {"test_system": "PC-3 [JPC-3]", "in_short": "(§1)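 Values are medians from duplicate plates. Each reflects relative viability, defined as the nuclei count of treated wells over that of vehicle wells. Lung cancer cell lines in 1536-well plates were pin-tool dosed one day after seeding with one drug alone or with a fixed anchor-drug dose plus five library-drug doses (not always all listed) in √10 steps, then fixed, stained and imaged at 4× after 5 days.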"}, "NCI-H3122": {"test_system": "NCI-H3122", "in_short": "as §1"}, "COR-L23": {"test_system": "COR-L23", "in_short": "as §1"}, "SK-LU-1": {"test_system": "SK-LU-1", "in_short": "as §1"}, "A-427": {"test_system": "A-427", "in_short": "as §1"}, "LK-2": {"test_system": "LK-2", "in_short": "as §1"}, "HOP-62": {"test_system": "HOP-62", "in_short": "as §1"}, "SK-MES-1": {"test_system": "SK-MES-1", "in_short": "as §1"}, "NCI-H1993": {"test_system": "NCI-H1993", "in_short": "as §1"}, "NCI-H1944": {"test_system": "NCI-H1944", "in_short": "as §1"}, "NCI-H2228": {"test_system": "NCI-H2228", "in_short": "as §1"}, "HARA": {"test_system": "HARA", "in_short": "as §1"}, "SW 1573": {"test_system": "SW 1573", "in_short": "as §1"}, "LXF-289": {"test_system": "LXF-289", "in_short": "as §1"}, "NCI-H727": {"test_system": "NCI-H727", "in_short": "as §1"}, "NCI-H1792": {"test_system": "NCI-H1792", "in_short": "as §1"}, "ABC-1": {"test_system": "ABC-1", "in_short": "as §1"}, "NCI-H596": {"test_system": "NCI-H596", "in_short": "as §1"}, "NCI-H2170": {"test_system": "NCI-H2170", "in_short": "as §1"}, "EMC-BAC-2": {"test_system": "EMC-BAC-2", "in_short": "as §1"}, "NCI-H2009": {"test_system": "NCI-H2009", "in_short": "as §1"}}, "data": [{"smiles": "C=C1C(=O)O[C@@H](CCCCCCCC)[C@@H]1C(=O)O", "note": "[C-75] + C[C@@H](Oc1cc(-c2cnn(C3CCNCC3)c2)cnc1N)c1c(Cl)ccc(F)c1Cl [Crizotinib] (partner 1 µM)", "values": [{"measurement": "relative viability", "setting": "PC-3 [JPC-3]; first compound 0.08 µM", "result": 1.01}, {"measurement": "relative viability", "setting": "PC-3 [JPC-3]; first compound 0.253 µM", "result": 0.99}, {"measurement": "relative viability", "setting": "PC-3 [JPC-3]; first compound 0.8 µM", "result": 0.98}, {"measurement": "relative viability", "setting": "PC-3 [JPC-3]; first compound 2.53 µM", "result": 1.05}, {"measurement": "relative viability", "setting": "PC-3 [JPC-3]; first compound 8 µM", "result": 1.14}, {"measurement": "relative viability", "setting": "NCI-H3122; first compound 0.08 µM", "result": 0.26}, {"measurement": "relative viability", "setting": "NCI-H3122; first compound 0.253 µM", "result": 0.254}, {"measurement": "relative viability", "setting": "NCI-H3122; first compound 0.8 µM", "result": 0.3}, {"measurement": "relative viability", "setting": "NCI-H3122; first compound 8 µM", "result": 0.269}, {"measurement": "relative viability", "setting": "COR-L23; first compound 0.08 µM", "result": 0.669}, {"measurement": "relative viability", "setting": "COR-L23; first compound 0.253 µM", "result": 0.613}, {"measurement": "relative viability", "setting": "COR-L23; first compound 0.8 µM", "result": 0.57}, {"measurement": "relative viability", "setting": "COR-L23; first compound 2.53 µM", "result": 0.703}, {"measurement": "relative viability", "setting": "COR-L23; first compound 8 µM", "result": 0.642}, {"measurement": "relative viability", "setting": "SK-LU-1; first compound 0.08 µM", "result": 0.801}, {"measurement": "relative viability", "setting": "SK-LU-1; first compound 0.253 µM", "result": 0.987}, {"measurement": "relative viability", "setting": "SK-LU-1; first compound 0.8 µM", "result": 0.883}, {"measurement": "relative viability", "setting": "SK-LU-1; first compound 2.53 µM", "result": 0.907}, {"measurement": "relative viability", "setting": "SK-LU-1; first compound 8 µM", "result": 0.655}, {"measurement": "relative viability", "setting": "A-427; first compound 0.08 µM", "result": 0.929}, {"measurement": "relative viability", "setting": "A-427; first compound 0.253 µM", "result": 1.11}, {"measurement": "relative viability", "setting": "A-427; first compound 0.8 µM", "result": 0.883}, {"measurement": "relative viability", "setting": "A-427; first compound 2.53 µM", "result": 0.69}, {"measurement": "relative viability", "setting": "A-427; first compound 8 µM", "result": 0.898}, {"measurement": "relative viability", "setting": "LK-2; first compound 0.08 µM", "result": 0.239}, {"measurement": "relative viability", "setting": "LK-2; first compound 0.253 µM", "result": 0.208}, {"measurement": "relative viability", "setting": "LK-2; first compound 0.8 µM", "result": 0.231}, {"measurement": "relative viability", "setting": "LK-2; first compound 2.53 µM", "result": 0.239}, {"measurement": "relative viability", "setting": "LK-2; first compound 8 µM", "result": 0.246}, {"measurement": "relative viability", "setting": "HOP-62; first compound 0.08 µM", "result": 0.99}, {"measurement": "relative viability", "setting": "HOP-62; first compound 0.253 µM", "result": 0.849}, {"measurement": "relative viability", "setting": "HOP-62; first compound 0.8 µM", "result": 0.81}, {"measurement": "relative viability", "setting": "HOP-62; first compound 2.53 µM", "result": 0.824}, {"measurement": "relative viability", "setting": "HOP-62; first compound 8 µM", "result": 1}, {"measurement": "relative viability", "setting": "SK-MES-1; first compound 0.08 µM", "result": 1.04}, {"measurement": "relative viability", "setting": "SK-MES-1; first compound 0.253 µM", "result": 0.997}, {"measurement": "relative viability", "setting": "SK-MES-1; first compound 0.8 µM", "result": 0.953}, {"measurement": "relative viability", "setting": "SK-MES-1; first compound 8 µM", "result": 0.941}, {"measurement": "relative viability", "setting": "NCI-H1993; first compound 0.08 µM", "result": 0.862}, {"measurement": "relative viability", "setting": "NCI-H1993; first compound 0.253 µM", "result": 0.991}, {"measurement": "relative viability", "setting": "NCI-H1993; first compound 0.8 µM", "result": 0.891}, {"measurement": "relative viability", "setting": "NCI-H1993; first compound 2.53 µM", "result": 0.701}, {"measurement": "relative viability", "setting": "NCI-H1993; first compound 8 µM", "result": 0.986}, {"measurement": "relative viability", "setting": "NCI-H1944; first compound 0.08 µM", "result": 1.06}, {"measurement": "relative viability", "setting": "NCI-H1944; first compound 0.253 µM", "result": 0.998}, {"measurement": "relative viability", "setting": "NCI-H1944; first compound 0.8 µM", "result": 1.05}, {"measurement": "relative viability", "setting": "NCI-H1944; first compound 8 µM", "result": 1.03}, {"measurement": "relative viability", "setting": "NCI-H2228; first compound 0.08 µM", "result": 0.548}, {"measurement": "relative viability", "setting": "NCI-H2228; first compound 0.253 µM", "result": 0.472}, {"measurement": "relative viability", "setting": "NCI-H2228; first compound 0.8 µM", "result": 0.412}, {"measurement": "relative viability", "setting": "NCI-H2228; first compound 2.53 µM", "result": 0.438}, {"measurement": "relative viability", "setting": "NCI-H2228; first compound 8 µM", "result": 0.596}, {"measurement": "relative viability", "setting": "HARA; first compound 0.08 µM", "result": 1}, {"measurement": "relative viability", "setting": "HARA; first compound 0.253 µM", "result": 1.15}, {"measurement": "relative viability", "setting": "HARA; first compound 0.8 µM", "result": 0.944}, {"measurement": "relative viability", "setting": "HARA; first compound 8 µM", "result": 1.05}, {"measurement": "relative viability", "setting": "SW 1573; first compound 0.08 µM", "result": 0.812}, {"measurement": "relative viability", "setting": "SW 1573; first compound 0.253 µM", "result": 0.842}, {"measurement": "relative viability", "setting": "SW 1573; first compound 0.8 µM", "result": 0.768}, {"measurement": "relative viability", "setting": "SW 1573; first compound 2.53 µM", "result": 0.809}, {"measurement": "relative viability", "setting": "SW 1573; first compound 8 µM", "result": 0.754}, {"measurement": "relative viability", "setting": "LXF-289; first compound 0.08 µM", "result": 0.795}, {"measurement": "relative viability", "setting": "LXF-289; first compound 0.253 µM", "result": 0.793}, {"measurement": "relative viability", "setting": "LXF-289; first compound 0.8 µM", "result": 0.812}, {"measurement": "relative viability", "setting": "LXF-289; first compound 2.53 µM", "result": 0.739}, {"measurement": "relative viability", "setting": "LXF-289; first compound 8 µM", "result": 0.806}, {"measurement": "relative viability", "setting": "NCI-H727; first compound 0.08 µM", "result": 0.825}, {"measurement": "relative viability", "setting": "NCI-H727; first compound 0.253 µM", "result": 1.2}, {"measurement": "relative viability", "setting": "NCI-H727; first compound 0.8 µM", "result": 0.772}, {"measurement": "relative viability", "setting": "NCI-H727; first compound 2.53 µM", "result": 0.57}, {"measurement": "relative viability", "setting": "NCI-H727; first compound 8 µM", "result": 1.11}, {"measurement": "relative viability", "setting": "NCI-H1792; first compound 0.08 µM", "result": 1.01}, {"measurement": "relative viability", "setting": "NCI-H1792; first compound 0.253 µM", "result": 0.918}, {"measurement": "relative viability", "setting": "NCI-H1792; first compound 0.8 µM", "result": 0.919}, {"measurement": "relative viability", "setting": "NCI-H1792; first compound 2.53 µM", "result": 0.857}, {"measurement": "relative viability", "setting": "NCI-H1792; first compound 8 µM", "result": 0.879}, {"measurement": "relative viability", "setting": "ABC-1; first compound 0.08 µM", "result": 1.29}, {"measurement": "relative viability", "setting": "ABC-1; first compound 0.253 µM", "result": 1.81}, {"measurement": "relative viability", "setting": "ABC-1; first compound 0.8 µM", "result": 0.998}, {"measurement": "relative viability", "setting": "ABC-1; first compound 2.53 µM", "result": 0.909}, {"measurement": "relative viability", "setting": "ABC-1; first compound 8 µM", "result": 0.882}, {"measurement": "relative viability", "setting": "NCI-H596; first compound 0.08 µM", "result": 1.01}, {"measurement": "relative viability", "setting": "NCI-H596; first compound 0.253 µM", "result": 0.937}, {"measurement": "relative viability", "setting": "NCI-H596; first compound 0.8 µM", "result": 0.794}, {"measurement": "relative viability", "setting": "NCI-H596; first compound 2.53 µM", "result": 0.875}, {"measurement": "relative viability", "setting": "NCI-H596; first compound 8 µM", "result": 1.03}, {"measurement": "relative viability", "setting": "NCI-H2170; first compound 0.08 µM", "result": 1.25}, {"measurement": "relative viability", "setting": "NCI-H2170; first compound 0.253 µM", "result": 1.28}, {"measurement": "relative viability", "setting": "NCI-H2170; first compound 0.8 µM", "result": 1.23}, {"measurement": "relative viability", "setting": "NCI-H2170; first compound 2.53 µM", "result": 1.07}, {"measurement": "relative viability", "setting": "NCI-H2170; first compound 8 µM", "result": 1.24}, {"measurement": "relative viability", "setting": "EMC-BAC-2; first compound 0.08 µM", "result": 0.752}, {"measurement": "relative viability", "setting": "EMC-BAC-2; first compound 0.253 µM", "result": 0.731}, {"measurement": "relative viability", "setting": "EMC-BAC-2; first compound 0.8 µM", "result": 0.744}, {"measurement": "relative viability", "setting": "EMC-BAC-2; first compound 2.53 µM", "result": 0.692}, {"measurement": "relative viability", "setting": "EMC-BAC-2; first compound 8 µM", "result": 0.704}, {"measurement": "relative viability", "setting": "NCI-H2009; first compound 0.08 µM", "result": 1.04}, {"measurement": "relative viability", "setting": "NCI-H2009; first compound 0.253 µM", "result": 1.01}, {"measurement": "relative viability", "setting": "NCI-H2009; first compound 0.8 µM", "result": 0.987}, {"measurement": "relative viability", "setting": "NCI-H2009; first compound 2.53 µM", "result": 0.78}, {"measurement": "relative viability", "setting": "NCI-H2009; first compound 8 µM", "result": 0.968}]}]}
